2 compounds from publication PMC8228075, “In Vitro and In Silico Characterization of G-Protein Coupled Receptor (GPCR) Targets of Phlorofucofuroeckol-A and Dieckol” (Marine Drugs, 2021) can be followed below.

Common to all, as to assay type: cell-based
Assay [1] addresses T1, Alpha-2A adrenergic receptor (hα2AAR) (Homo sapiens, UniProt P08913).
T1 construct: host or cells: rat basophil leukemia cells
T1 sequence (P08913 1-465): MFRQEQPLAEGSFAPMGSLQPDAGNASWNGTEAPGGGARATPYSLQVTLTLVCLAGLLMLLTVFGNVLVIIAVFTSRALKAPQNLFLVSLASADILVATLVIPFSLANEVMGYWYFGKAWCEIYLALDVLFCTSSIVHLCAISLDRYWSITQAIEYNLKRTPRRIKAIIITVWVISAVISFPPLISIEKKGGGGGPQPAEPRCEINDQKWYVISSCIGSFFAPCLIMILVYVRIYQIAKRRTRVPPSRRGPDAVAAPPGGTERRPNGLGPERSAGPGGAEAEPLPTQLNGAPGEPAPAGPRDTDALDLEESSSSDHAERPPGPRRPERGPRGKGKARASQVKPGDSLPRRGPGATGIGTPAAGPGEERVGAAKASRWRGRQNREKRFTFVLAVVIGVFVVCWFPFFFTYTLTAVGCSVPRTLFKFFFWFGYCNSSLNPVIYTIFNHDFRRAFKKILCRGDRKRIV
Put plainly: hα2AAR functional antagonist assay (Ca2+ mobilization, rat basophil leukemia cells). The note with it: read-out: Antagonist Effect. The text has this: (§1) The in-house assay protocol and experimental conditions are reported in our previous reports. The functional effect of dieckol and PFF-A was characterized based on their modulation effect on cytosolic Ca^2+ ion mobilization using a fluorimetric detection method or by measuring their effect on cAMP modulation using homogeneous time-resolved fluorescence (HTRF) detection.
The rat basophil leukemia cells were distributed in microplates at a density of 1.1 × 10^4 cells/well after suspending in a HBSS buffer (Invitrogen) containing 20 mM HEPES. Then, the fluorescent probe (Fluo8, AAT Bioquest) mixed with probenecid in HBSS buffer (Invitrogen) complemented with 20 mM Hepes (Millipore) (pH 7.4) was added into each well incubated for 60 min at 30 °C. Thereafter, the assay plates were positioned in a microplate reader (FlipR Tetra, Molecular Device) and we added test compounds, reference agonist/antagonist or HBSS buffer (basal control). Change in fluorescence intensity which varies proportionally to the free cytosolic Ca^2+ ion concentration was measured.
In general terms: A change in cytosolic calcium serves as a functional read-out for many receptors and channels.

Another assay deals with T2, h5-HT1AR (Homo sapiens, UniProt P08908).
T2 construct: host or cells: Ba/F3-5HT1AR cells
T2 sequence (P08908 1-422): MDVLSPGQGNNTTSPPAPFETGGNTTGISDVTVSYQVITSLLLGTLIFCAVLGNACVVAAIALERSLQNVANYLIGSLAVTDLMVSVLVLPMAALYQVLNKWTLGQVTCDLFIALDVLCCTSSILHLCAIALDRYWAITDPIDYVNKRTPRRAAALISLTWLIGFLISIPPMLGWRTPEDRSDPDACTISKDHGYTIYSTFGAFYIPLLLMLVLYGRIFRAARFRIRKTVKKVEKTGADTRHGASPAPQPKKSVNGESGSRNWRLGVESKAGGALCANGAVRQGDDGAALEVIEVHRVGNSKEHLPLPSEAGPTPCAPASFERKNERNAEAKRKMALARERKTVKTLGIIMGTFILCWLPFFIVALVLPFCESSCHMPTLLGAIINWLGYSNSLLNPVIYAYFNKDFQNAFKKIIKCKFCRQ
Put plainly: h5-HT1AR functional antagonist assay (Ca2+ mobilization, Ba/F3 cells). The note with it: for Antagonist Effect: 50 µM, % inhibition of control response to 30 nM serotonin; for IC50: antagonist effect, mean ± SD, n = 3. As to the method:
as §1
In brief, Ba/F3-5HT1AR cells were first suspended in HBSS buffer (Invitrogen, Carlsbad, CA, USA) complemented with 20 mM HEPES buffer (pH 7.4). Then, the cells were distributed into microplates at a density of 1 × 10^6 cells/well. Subsequently, fluorescent probe (Fluo8, AAT Bioquest) mixed with probenecid in HBSS buffer (Invitrogen, Carlsbad, CA, USA) supplemented with 20 mM HEPES (Invitrogen) (pH 7.4) was added to each well, and the plates were incubated for 60 min at 37 °C. […] Fluorescence intensity was measured which varied in proportion to the free cytosolic Ca^2+ ion concentration.

In assay [2] the target is T3, Free fatty acid receptor 1 (FFA1R) (GPR40) (Homo sapiens, UniProt O14842).
T3 construct: host or cells: HEK-293 cells
Put plainly: FFA1R/GPR40 functional agonist assay (Ca2+ mobilization, HEK-293 cells). The note with it: 100 µM; % of control response to 100 µM linoleic acid. As to the method:
The in-house assay protocol and experimental conditions are reported in our previous reports. […] Then, the mixture of fluorescent probe (Fluo4 Direct, Invitrogen) and probenecid in HBSS buffer (Invitrogen) complemented with 20 mM Hepes (Invitrogen) (pH 7.4) was added into each well and incubated for 60 min at 37 °C, followed by 15 min incubation at 22 °C. Thereafter, the assay plates were positioned in a CellLux microplate reader (PerkinElmer, Waltham, MA, USA) which was used for the addition of the following: For agonist assay-test compound, reference agonist, or HBSS buffer (basal control). Linoleic acid at 100 μM was added in separate assay wells for stimulated control measurement.

In assay [3] the target is T4, δ-opioid receptor (hδ-OPR) (Homo sapiens, UniProt P41143).
T4 construct: host or cells: rat basophil leukemia cells
Nature of the assay: hδ-OPR functional antagonist assay (Ca2+ mobilization, rat basophil leukemia cells). To be noted: for Antagonist Effect: 50 µM; for IC50: antagonist effect, mean ± SD, n = 3; for inhibition at 150 µM: read-out: Antagonist Effect, 150 µM.
Text: as §1
Thereafter, a mixture of fluorescent probe (Fluo8, AAT Bioquest) and probenecid in HBSS buffer (Invitrogen) complemented with 20 mM Hepes (Millipore) (pH 7.4) was added and plates were incubated for 60 min at 30 °C. Then, the assay plates were positioned in a FlipR Tetra microplate reader (Molecular Device, San Jose, CA, USA) for the addition of the test compound, reference agonist/antagonist, or HBSS buffer (basal control). Change in fluorescence intensity that varies proportionally to the free cytosolic Ca^2+ ion concentration was measured.

Where [4] appears, read: BaF3, read-out: Antagonist Effect.
[5] abbreviates: % inhibition of control response to 25 nM DPDPE.

T4 sequence (P41143 whole entry): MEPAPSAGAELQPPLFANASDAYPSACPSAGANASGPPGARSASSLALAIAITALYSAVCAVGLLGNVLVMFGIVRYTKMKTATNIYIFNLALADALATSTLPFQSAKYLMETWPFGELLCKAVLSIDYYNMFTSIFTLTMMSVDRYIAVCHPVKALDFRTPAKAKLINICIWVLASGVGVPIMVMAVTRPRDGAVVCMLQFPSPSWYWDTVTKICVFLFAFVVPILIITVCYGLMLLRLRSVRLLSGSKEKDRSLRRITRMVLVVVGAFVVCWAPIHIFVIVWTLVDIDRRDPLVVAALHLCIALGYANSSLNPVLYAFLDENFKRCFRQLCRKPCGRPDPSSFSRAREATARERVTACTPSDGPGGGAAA
T3 sequence (O14842 whole entry): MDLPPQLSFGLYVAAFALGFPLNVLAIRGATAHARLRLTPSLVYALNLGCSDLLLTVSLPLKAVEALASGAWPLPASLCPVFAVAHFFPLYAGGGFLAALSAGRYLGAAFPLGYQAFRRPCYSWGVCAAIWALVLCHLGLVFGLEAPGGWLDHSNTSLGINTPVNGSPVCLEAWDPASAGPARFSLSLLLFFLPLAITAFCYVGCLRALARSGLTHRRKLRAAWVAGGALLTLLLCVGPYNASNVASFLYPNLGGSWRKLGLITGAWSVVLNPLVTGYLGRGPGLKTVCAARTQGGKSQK

For the compound `Oc1cc(O)cc(Oc2c(O)cc(O)c3c2Oc2c(O)cc4oc5c(Oc6cc(O)cc(O)c6)c(O)cc(O)c5c4c2O3)c1` [PFF-A, phlorofucofuroeckol-A], the inhibition at 100 µM in assay [1] amounted to 20.9 ± 1.77%. On h5-HT1AR, the “Antagonist Effect” value is recorded as 85.55 ± 8.41% and 17.8 ± 3.42 µM corresponded to half-maximal inhibition (IC50). Further, on h5-HT1AR (setting [4]), the inhibition at 12.5 µM came to 37.4 ± 2.19%, the inhibition at 25 µM is 68.2 ± 9.89% and the inhibition at 100 µM is 77 ± 11%. For the same compound, the “Agonist Effect” value in assay [2] is on record as −1.0 ± 0.07%. In assay [3] (setting [5]), the “Antagonist Effect” value is on record as 89.03 ± 0.70% and the inhibition at 150 µM was determined as 93.7 ± 6.67%. Besides, the IC50 in assay [3] is less than 50 µM.

For the compound `Oc1cc(O)cc(Oc2c(O)cc(O)c3c2Oc2c(O)cc(Oc4c(O)cc(Oc5c(O)cc(O)c6c5Oc5c(O)cc(O)cc5O6)cc4O)cc2O3)c1` [Dieckol, dieckol], the inhibition at 100 µM amounted to 46.1 ± 20.1% in assay [1]; 91 ± 3.11% at h5-HT1AR (setting [4]); 67 ± 0.92% in assay [3] (read-out: Antagonist Effect, 100 µM, % inhibition of control response to 25 nM DPDPE). The figures for the “Antagonist Effect” value (on h5-HT1AR; in assay [3] (setting [5])) were 54.7 ± 1.7% and 23.23 ± 4.04%, respectively. On h5-HT1AR (setting [4]), the inhibition at 200 µM amounted to 100.9 ± 0.57%. In addition, the results for the IC50 (against h5-HT1AR; in assay [3]) were 43.3 ± 3.22 µM and 80.5 ± 13.7 µM, respectively. Further, the “Agonist Effect” value in assay [2] amounted to 0.2 ± 1.56%. Moreover, the inhibition at 150 µM in assay [3] (setting [5]) amounted to 100 ± 1.53%.

By IC50 is commonly meant the midpoint of a concentration-inhibition curve. A lower IC50 goes with greater potency.
